Results as given in US8980946B2, “Treatment of obesity using non-daily administration of 6-O-(4-dimethylaminoethoxy) cinnamoyl fumagillol” (Zafgen, Inc., priority 2010, dated 2015).
Several values for one entry are separate records, joined by “and”; a condition that tells them apart may be missing. Equal entries are not always repeated. Marks after values point to notes of the source that are not given here.

What was measured:
[1] = Twice weekly intravenous administration to obese patients for 26 days: body weight; format: in vivo, human
Method: (§1) The compound was intravenously administered to each patient of a cohort (except for a placebo cohort) twice weekly for 26 days. Each of patients in the three non-placebo cohorts received either 0.1 mg/m^2 (cohort 1); 0.3 mg/m^2 (cohort 2); or 0.9 mg/m^2 (cohort 3) doses of the compound at the time of administration. The trial was conducted under the appropriate government and medical supervision.
Table 1 summarizes body weight determination of the 9 patients in the 0.9 mg/m^2 cohort on the day of the first dose and prior to a second dose administered three or four days later.
(§2) FIG. 1 depicts the body weight change (loss) as a percent before each administration of the twice weekly dose for the 0.9 mg/m^2 cohort. FIG. 2 depicts the Visual Analog Scale reports of hunger decline about 50% following successive biweekly dose administration for the 0.9 mg/m^2 cohort.
All of the subjects of the trial described in Example 1 received doses ranging from 1.8 to 2.2 mg with each administration (given twice weekly). However, weight change was not strictly associated with dose delivered. Instead, response was strongly associated with dose administered per unit excess body weight, as compared to weight change associated with dose delivered per unit body weight.

[2] = Visual Analog Scale of hunger in obese patients, twice weekly dosing; format: in vivo, human; settings: successive twice weekly doses, 0.9 mg/m^2 cohort
Method: FIG. 2 depicts visual analogue scale of hunger decline by approximately 50% with body weight change (percent) with twice weekly dosing off 0.1 mg/m^2, 0.3 mg/m^2, and 0.9 mg/m^2 (approximately 1.8 to 2.1 mg) of 6-O-(4-dimethylaminoethoxy)cinnamoyl fumagillol in human patients. Values are means (n=6 per dose level) of changes in fasted Visual Analog Scale scores for each visit day vs. Day 1 for population; p values derived from 2-way ANOVA with Bonferroni post-test comparisons (*, p<0.05; **, p<0.01 vs. placebo).
as §1, §2

[3] = human, in vivo
Method: as §1
There was a significant correlation between weight loss of patients and maintained exposure of 0.02 ng/mL of the drug above the level of quantitation of the assay 24 hours after dosing, as shown in FIG. 4 (circled data point is exposure of one poor responder below the level of quantitation of assay). The PK profile at day 26 is representative of steady state (see FIG. 5).

adiponectin = test: Adiponectin levels in the serum of patients undergoing the trial; format: in vivo, human; settings: with treatment
Method: Levels of adiponectin in the serum of patients undergoing the trial were also measured.

Sprague-Dawley male rats = test: Testis toxicity study, subcutaneous administration daily or every third day for 4 weeks; format: in vivo, rat
Method: A testis toxicity study was performed using daily subcutaneous administration or every other day (every third day) subcutaneous administration in rats. […] Additionally, equivalent total exposure using a 3 mg/kg dose administered every third day was compared as well.
64 Sprague-Dawley male rats within ±20% of mean body weight at initiation of dosing were used for the study. Vehicle control or Compound was administered once daily or every 3rd day for 4 weeks, at a volume of 5 mL/kg, as follows, with groups 1-4 for toxicity and groups 5-8 for toxicokinetic studies.
Upon completion of the study, complete necropsy examinations are performed, and the seminal vesicle, testes, and other organs are weighed at terminal necropsy. Terminal body weights are determined just prior to necropsy for assessment of organ weight changes.

[4] = Injection site tolerability; format: in vivo; settings: doses up to 6 mg
[5] = average of 9 patients, 0.9 mg/m^2 cohort, first dose to before second dose
[6] = individual subject, 0.9 mg/m^2 cohort, first dose to before second dose three or four days later
[7] = rat, s.c., 4 weeks, 1 mg/kg daily
[8] = rat, s.c., 4 weeks, 1 mg/kg every 3rd day
[9] = rat, s.c., 4 weeks, 3 mg/kg every 3rd day

Which “efficacy (weight loss)” value ([1]; 0.1 and 0.3 mg/m^2 twice weekly) does the source give for CO[C@@H]1[C@H](OC(=O)/C=C/c2ccc(OCCN(C)C)cc2)CC[C@]2(CO2)[C@H]1[C@@]1(C)O[C@@H]1CC=C(C)C.O=C(O)C(=O)O [6-O-(4-dimethylaminoethoxy)cinnamoyl fumagillol oxalate] here?
The value was “Lack of efficacy”.

And the “dose with which maximum efficacy is obtained” value ([1]; administered biweekly)?
Its value is ~0.02 mg/kg.

What about the “doses at which weight loss efficacy is obtained” value ([1]; administered twice weekly) of the same compound?
The value was ≥ 0.02 mg/kg.

And the “dose at which weight loss plateaus” value ([1]; administered twice weekly (~1.8 mg dose))?
The value was 0.9 mg/m^2.

And the “weight loss at follow up check at day 36” value ([1]; after twice weekly regimen over 26 days)?
Its value is “substantially sustained”.

And the “Weight Change (%), Average” value [1, 5]?
The value was −0.7%.

What about the “Weight Change (kg), Average” value [1, 5] of the same compound?
Its value is -0.7 kg.

What about the “Ending weight (kg), Average” value ([1]; average of 9 patients, 0.9 mg/m^2 cohort, prior to second dose) of the same compound?
Its value is 103.9 kg.

And the “Weight Change” value [1, 6]?
The value was 0 kg and −0.5 kg and −0.7 kg and 0.2 kg and −0.6 kg and −1.1 kg (2×) and −0.9 kg and −1.9 kg.

And the “Weight Change (%)” value [1, 6]?
Its value is 0.0% and −0.5% and −0.6% (2×) and 0.2% and −1.1% and −0.9% and −1.9% and −1.0%.

And the “Ending weight” value ([1]; individual subject, 0.9 mg/m^2 cohort, prior to second dose three or four days after first dose)?
Its value is 107.9 kg and 105 kg and 118 kg and 96.2 kg and 95.7 kg and 100.4 kg and 103.7 kg and 100.5 kg and 107.5 kg.

What about the “dose per kg of excess body weight to be exceeded to see effects” value ([1]; obese patients, twice weekly) of the same compound?
The value was > 40 μg of drug per kg of excess body weight.

And the “number of patients showing greater than 3-4 percent body weight loss” value ([1]; of the 9 subjects at 0.9 mg/m^2, twice weekly, over 26 days of exposure)?
Its value is 7.

What about the “duration of weight reduction after single administration” value ([1]; single administration of 0.9 mg/m2 dose) of the same compound?
The value was 4 days.

And the “Visual Analog Scale hunger decline” value [2]?
The value was “about 50%”.

And the “Visual Analog Scale hunger decline” value ([2]; listed as 6-O-(4-dimethylaminoethoxy)cinnamoyl fumagillol)?
The value was “approximately 50%”.

And the “drug exposure at 24 hours post dose associated with weight loss” value [3]?
The value was “above 0.02 ng/mL”.

And the “AUC (0-24 hr) measured range” value ([3]; iv, 0.9 mg/m2)?
The value was 8.57 to 13.6 ng·h/mL.

And the “T1/2 (H) λz (terminal)” value ([3]; iv, 0.9 mg/m2)?
Its value is 5.41±2.82 H.

And the “average AUC (0-24 hr)” value ([3]; iv, 0.9 mg/m2)?
Its value is 10.5 ng·h/mL.

And the “average AUC (0-∞)” value ([3]; iv, 0.9 mg/m2)?
Its value is 11 ng·h/mL.

And the “average Cmax” value ([3]; iv, 0.9 mg/m2)?
The value was 2.1 ng/mL.

What about the terminal half life ([3]; iv, 0.9 mg/m2) of the same compound?
The terminal half life was 5.4 h.

And the “increase of adiponectin concentrations” value (adiponectin)?
The value was “over 60%”.

What about the “Clinical Chemistry findings” value (Sprague-Dawley male rats; rat, 1 mg/kg Q3D) of the same compound?
Its value is “No findings”.

And the Hematology findings (Sprague-Dawley male rats; rat, 1 mg/kg Q3D)?
The Hematology findings was “No findings”.

What about the Macroscopic findings (Sprague-Dawley male rats; rat, 1 mg/kg Q3D) of the same compound?
Its Macroscopic findings is “No findings”.

And the Microscopic findings (Sprague-Dawley male rats; rat, 1 mg/kg Q3D)?
Its Microscopic findings is “No findings”.

What about the Organ weight findings (Sprague-Dawley male rats; rat, 1 mg/kg Q3D) of the same compound?
Its Organ weight findings is “No findings”.

And the “Clinical Chemistry: Higher albumin/globulin” value (Sprague-Dawley male rats; rat, 1 mg/kg/day)?
Its value is “Higher albumin/globulin (1.12X)”.

What about the “Clinical Chemistry: Higher potassium” value (Sprague-Dawley male rats; rat, 1 mg/kg/day) of the same compound?
Its value is “Higher potassium (1.2X)”.

What about the “Clinical Chemistry: Reduced Inorg phosphate” value (Sprague-Dawley male rats; rat, 1 mg/kg/day) of the same compound?
The value was “Reduced Inorg phosphate (0.96 X)”.

What about the “Clinical Chemistry: Reduced alk phos” value (Sprague-Dawley male rats; rat, 1 mg/kg/day) of the same compound?
The value was “Reduced alk phos (0.72X)”.

And the Hematology findings (Sprague-Dawley male rats; rat, 1 mg/kg/day)?
Its Hematology findings is “Reduced blood cell counts”.

What about the “Hematology: Basophil” value (Sprague-Dawley male rats; rat, 1 mg/kg/day) of the same compound?
The value was 0.55 X.

What about the “Hematology: Eosinophil” value (Sprague-Dawley male rats; rat, 1 mg/kg/day) of the same compound?
The value was 0.75 X.

And the “Hematology: Large unstained cell” value (Sprague-Dawley male rats; rat, 1 mg/kg/day)?
Its value is “(0.67X)”.

What about the “Hematology: Lymphocyte” value (Sprague-Dawley male rats; rat, 1 mg/kg/day) of the same compound?
Its value is 0.65 X.

What about the “Hematology: Monocyte” value (Sprague-Dawley male rats; rat, 1 mg/kg/day) of the same compound?
Its value is 0.79 X.

What about the “Hematology: Neutrophil” value (Sprague-Dawley male rats; rat, 1 mg/kg/day) of the same compound?
The value was 0.83 X.

And the “Hematology: WBC” value (Sprague-Dawley male rats; rat, 1 mg/kg/day)?
Its value is 0.68 X.

What about the Macroscopic findings (Sprague-Dawley male rats; rat, 1 mg/kg/day) of the same compound?
Its Macroscopic findings is “Smaller testes and epididymides”.

What about the “Microscopic findings, lymph node” value (Sprague-Dawley male rats; rat, 1 mg/kg/day) of the same compound?
Its value is “Lymph node atrophy”.

What about the “Microscopic: Germ cell depletion/degeneration (incidence)” value (Sprague-Dawley male rats; rat, 1 mg/kg/day) of the same compound?
The value was “Germ cell depletion/degeneration 9/10”.

And the “Organ weight: Adrenal” value (Sprague-Dawley male rats; rat, 1 mg/kg/day)?
The value was “(1.24X)”.

What about the “Organ weight: Brain” value (Sprague-Dawley male rats; rat, 1 mg/kg/day) of the same compound?
Its value is 1.15 X.

And the “Organ weight: Epididymides” value (Sprague-Dawley male rats; rat, 1 mg/kg/day)?
The value was 0.88 X.

And the “Organ weight: Liver” value (Sprague-Dawley male rats; rat, 1 mg/kg/day)?
The value was 0.85 X.

And the “Organ weight: Prostate” value (Sprague-Dawley male rats; rat, 1 mg/kg/day)?
The value was 0.83 X.

And the “Organ weight: Salivary gland” value (Sprague-Dawley male rats; rat, 1 mg/kg/day)?
Its value is 0.87 X.

And the “Organ weight: Seminal vesicle” value (Sprague-Dawley male rats; rat, 1 mg/kg/day)?
Its value is 0.79 X.

What about the “Organ weight: Spleen” value (Sprague-Dawley male rats; rat, 1 mg/kg/day) of the same compound?
The value was 0.71 X.

And the “Organ weight: Testes” value (Sprague-Dawley male rats; rat, 1 mg/kg/day)?
Its value is 0.83 X.

What about the “Organ weight: Thymus” value (Sprague-Dawley male rats; rat, 1 mg/kg/day) of the same compound?
Its value is 0.86 X.

What about the “Organ weight: Thyroid” value (Sprague-Dawley male rats; rat, 1 mg/kg/day) of the same compound?
The value was 0.82 X.

What about the overall findings (Sprague-Dawley male rats; rat, 1 mg/kg/day) of the same compound?
The overall findings was “adverse findings (e.g. blood dyscrasias and/or irreversible testis lesions)”.

And the “Clinical Chemistry: Higher albumin/globulin” value (Sprague-Dawley male rats; rat, 3 mg/kg Q3D)?
The value was “(1.09X)”.

And the Hematology findings (Sprague-Dawley male rats; rat, 3 mg/kg Q3D)?
The Hematology findings was “No findings”.

And the Macroscopic findings (Sprague-Dawley male rats; rat, 3 mg/kg Q3D)?
Its Macroscopic findings is “No findings”.

And the Microscopic findings (Sprague-Dawley male rats; rat, 3 mg/kg Q3D)?
The Microscopic findings was “No findings”.

What about the Organ weight findings (Sprague-Dawley male rats; rat, 3 mg/kg Q3D) of the same compound?
Its Organ weight findings is “No findings”.

And the animal weight (Sprague-Dawley male rats; rat, 3 mg/kg every three days)?
Its animal weight is “reduces animal weight significantly”.

And the overall findings (Sprague-Dawley male rats; rat, 3 mg/kg every three days)?
The overall findings was “does not show any significant adverse findings”.

What about the “Epididymides absolute weight” value (Sprague-Dawley male rats; [7]) of the same compound?
The value was 1.130 g.

And the “Prostate absolute weight” value (Sprague-Dawley male rats; [7])?
Its value is 0.546 g.

And the “Seminal Vesicles absolute weight (g)” value (Sprague-Dawley male rats; [7])?
The value was 1.201** g.

And the “Testes absolute weight (g)” value (Sprague-Dawley male rats; [7])?
The value was 2.569* g.

And the “Thymus absolute weight” value (Sprague-Dawley male rats; [7])?
Its value is 0.343 g.

What about the “Epididymides absolute weight” value (Sprague-Dawley male rats; [8]) of the same compound?
The value was 1.249 g.

And the “Prostate absolute weight” value (Sprague-Dawley male rats; [8])?
The value was 0.710 g.

What about the “Seminal Vesicles absolute weight” value (Sprague-Dawley male rats; [8]) of the same compound?
The value was 1.523 g.

What about the “Testes absolute weight” value (Sprague-Dawley male rats; [8]) of the same compound?
The value was 3.097 g.

And the “Thymus absolute weight” value (Sprague-Dawley male rats; [8])?
Its value is 0.421 g.

What about the “Epididymides absolute weight” value (Sprague-Dawley male rats; [9]) of the same compound?
Its value is 1.267 g.

And the “Prostate absolute weight” value (Sprague-Dawley male rats; [9])?
Its value is 0.663 g.

What about the “Testes absolute weight” value (Sprague-Dawley male rats; [9]) of the same compound?
Its value is 3.273 g.

What about the “Thymus absolute weight” value (Sprague-Dawley male rats; [9]) of the same compound?
The value was 0.423 g.

What about the “tissue weight effects (testes and seminal vesicle weights)” value (Sprague-Dawley male rats; rats administered with less frequent dosing (every third day)) of the same compound?
Its value is “no tissue weight effects”.

What about the injection site tolerability [4] of the same compound?
The injection site tolerability was “acceptable”.
